Experiment [1] relates to HPAC (homozygous mutant KRAS G12D human pancreatic cell line). The experiment in a line: KRAS 3D-Cell Proliferation Assay, HPAC (Example 503). It is filed as cell-based. As to conditions: Homo sapiens, HPAC, 168 h, HPAC 3D culture, 7 days, CellTiter-Glo 3D; read-out: Prolif HPAC 3D ATP IC50. The method in brief:
(§1)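 Luminescent ATP readout (CellTiter-Glo 3D, with mechanical mixing) measures growth of cells cultured in 3D after a 7-day compound exposure at 37° C. Percent inhibition is referenced to vehicle (DMSO) and 1 μM staurosporine controls, and IC50 comes from a four-parameter Hill fit.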

For experiment [2], the system named is H1975 (KRAS wild type human lung adenocarcinoma cell line). In words: KRAS 3D-Cell Proliferation Assay, H1975 (Example 503). It is filed as cell-based. As to conditions: Homo sapiens, NCI-H1975, 168 h, H1975 3D culture, 7 days, CellTiter-Glo 3D; read-out: Prolif H1975 3D ATP IC50. In a few lines:
as §1

Another experiment has as its target KRAS WT (Homo sapiens, UniProt P01116). In words: KRAS WT Biochemical Assay, BODIPY-GDP Exchange TR-FRET (Example 502; 0.06 nM KRAS WT, 15 nM GDP, 300 nM SOS1, 120-minute incubation). To be noted: SOS1-mediated BODIPY-GDP exchange, read-out: KRas HTRF IC50. Here is the method:
Example 502: KRAS WT Biochemical Assay, BODIPY-GDP Exchange TR-FRET. Biochemical compound potencies are assessed by evaluating inhibition of SOS1-mediated nucleotide exchange in KRAS WT. In this assay, the SOS1-promoted exchange of fluorescently-labeled GDP (BOPIDY-GDP) is monitored by time-resolved fluorescence resonance energy transfer (TR-FRET). Compounds solubilized in DMSO are dispensed as concentration series into 384-well white assay plates. A preformed complex of 0.06 nM biotin-tagged recombinant human KRAS WT, 15 nM GDP and 0.06 nM terbium-labeled streptavidin (CisBIO) prepared in 10 uL/well assay buffer (20 mM HEPES, pH 7.5, 50 mM NaCl, 10 mM MgCl2, 0.01% Tween-20 and 1 mM dithiothreitol) is added and allowed to incubate for 10-minutes at room temperature. The reaction is initiated with the addition of 5 uL 300 nM recombinant human SOS1 and 300 nM BODIPY-GDP in assay buffer. After a 120-minute incubation, the fluorescence is measured with excitation at 337 nm and emission at 490 and 520 nm. The TR-FRET ratio is determined as the fluorescence at 520 nm divided by the fluorescence at 490 nm multiplied by 10,000. The results are normalized to percent inhibition based on control samples: DMSO (0% inhibition) and control compound at a concentration that inhibits completely (100% inhibition). […]
In general terms: TR-FRET usually uses a lanthanide donor and a delayed reading to cut background.

For another experiment, the target named is KRAS G12D (Homo sapiens, UniProt P01116, G12D). In words: KRAS G12D LoEnz Biochemical Assay, BODIPY-GDP Exchange TR-FRET (Example 500). To be noted: BODIPY-GDP exchange, read-out: KRas (G12D) GDP HTRF IC50. Here is the method:
Example 500: KRAS G12D LoEnz Biochemical Assay, BODIPY-GDP Exchange TR-FRET. Biochemical compound potencies are assessed by evaluating inhibition of SOS1-mediated nucleotide exchange in KRAS G12D. In this assay, the SOS1-promoted exchange of fluorescently-labeled GDP (BOPIDY-GDP) is monitored by time-resolved fluorescence resonance energy transfer (TR-FRET). Compounds solubilized in DMSO are dispensed as concentration series into 384-well white assay plates. A preformed complex of biotin-tagged recombinant human KRAS (0.06 nM mutant G12D) and 0.06 nM terbium-labeled streptavidin (CisBIO) prepared in 10 uL/well assay buffer (20 mM HEPES, pH 7.5, 50 mM NaCl, 10 mM MgCl2, 0.01% Tween-20 and 1 mM dithiothreitol) is added and allowed to incubate for 10-minutes at room temperature. The reaction is initiated with the addition of 5 uL 300 nM recombinant human SOS1 and 300 nM BODIPY-GDP in assay buffer. After a 120-minute incubation, the fluorescence is measured with excitation at 337 nm and emission at 490 and 520 nm. The TR-FRET ratio is determined as the fluorescence at 520 nm divided by the fluorescence at 490 nm multiplied by 10,000. The results are normalized to percent inhibition based on control samples: DMSO (0% inhibition) and control compound at a concentration that inhibits completely (100% inhibition). The normalized TR-FRET results are plotted against compound concentration, and the data are fit to a 4-parameter Hill equation to determine the IC50 values.

Experiment [3] concerns AsPC-1 (homozygous mutant KRAS G12D human pancreatic cell line). The experiment in a line: KRAS 3D-Cell Proliferation Assay, AsPC-1 (Example 503). To be noted: Homo sapiens, ASPC1, 168 h, AsPC-1 3D culture, 7 days, CellTiter-Glo 3D; read-out: Prolif AsPC-1 3D ATP IC50. In kind it is cell-based. The method in brief: as §1
A general note: ATP-based viability assays read luminescence as a measure of living cells.

Sequence of KRAS WT (P01116 1-188 isoform P01116-2): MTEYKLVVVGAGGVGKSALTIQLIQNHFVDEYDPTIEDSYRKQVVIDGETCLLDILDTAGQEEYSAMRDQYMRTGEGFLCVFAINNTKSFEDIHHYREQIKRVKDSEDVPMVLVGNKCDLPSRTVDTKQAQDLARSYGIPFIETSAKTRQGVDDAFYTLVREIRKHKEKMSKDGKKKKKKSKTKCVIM
Sequence of KRAS G12D (P01116 1-188 isoform P01116-2 G12D): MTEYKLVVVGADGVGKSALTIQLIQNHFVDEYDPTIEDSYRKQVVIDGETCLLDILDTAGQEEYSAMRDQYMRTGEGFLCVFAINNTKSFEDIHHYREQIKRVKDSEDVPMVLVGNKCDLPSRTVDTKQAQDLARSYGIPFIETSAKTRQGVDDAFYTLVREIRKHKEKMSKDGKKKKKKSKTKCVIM

Broadly, the IC50 is the point on the concentration scale where inhibition reaches its midpoint. For the molecule `Cc1c(F)c(N)cc(-c2nc3c4c(nc(OC[C@H]5CC[C@@H]6C(=O)N(C)CCN56)nc4c2F)N2C[C@H]4CC[C@H](N4)[C@H]2[C@H](C)O3)c1C(F)(F)F` (relative stereo) [Compound 123, 6-((((5S,5aS,6S,9R)-2-(5-Amino-4-fluoro-3-methyl-2-(trifluoromethyl)phenyl)-1-fluoro-5-methyl-5a,6,7,8,9,10-hexahydro-5H-4-oxa-3,10a,11,13,14-pentaaza-6,9-methanonaphtho[1,8-ab]heptalen-12-yl)oxy)methyl)-2-methylhexahydropyrrolo[1,2-a]pyrazin-1(2H)-one], the IC50 in experiment [1] amounted to 63 nM; in experiment [2], 13900 nM; on KRAS WT, 181 nM; on KRAS G12D, 0.7 nM.

`C[C@@H]1Oc2nc(-c3cc(N)cc(F)c3C(F)(F)F)c(F)c3nc(OC[C@H]4CC[C@@H]5COC(C)(C)CN45)nc(c23)N2C[C@H]3CC[C@H](N3)[C@@H]12` (relative stereo) [Compound 125, 3-((5S,5aS,6S,9R)-12-((3,3-dimethylhexahydro-1H-pyrrolo[2,1-c][1,4]oxazin-6-yl)methoxy)-1-fluoro-5-methyl-5a,6,7,8,9,10-hexahydro-5H-4-oxa-3,10a,11,13,14-pentaaza-6,9-methanonaphtho[1,8-ab]heptalen-2-yl)-5-fluoro-4-(trifluoromethyl)aniline]: the IC50 in experiment [1] was found to be 2.14 nM; in experiment [2] it was 1220 nM; on KRAS WT it was 14.7 nM; in experiment [3], 10.2 nM; at KRAS G12D it was 0.23 nM.

Values taken from patent US12338256B2, “Aza-tetracyclic oxazepine compounds and uses thereof” (Genentech, Inc., priority 2022, dated 2025).
